Here are results for one molecule from the kinase profiling compilation of Christmann-Franck et al. (2016).

Holding throughout (experiment): Caliper, Mobility shift assay off-chip
In one assay the target is MET (human) (UniProt P08581). The note with it: compound 1.0 µM.
The test system of another assay is MAPK1 (mouse). The note with it: compound 1.0 µM; accession and sequence are those of the human protein.
Another assay has as its target RPS6KA2 KD1 KD2 (human) (UniProt Q15349). To be noted: compound 1.0 µM.
The next assay has as its target PRKD2 (human) (UniProt Q9BZL6). To be noted: compound 1.0 µM.
Another assay deals with CDC42BPB (human) (UniProt Q9Y5S2). The note with it: compound 1.0 µM.
The target of a further assay is DMPK (human) (UniProt Q09013). The note with it: compound 1.0 µM.
Another assay relates to PRKACA (cow). To be noted: compound 1.0 µM; accession and sequence are those of the human protein.
The subject of another assay is BLK (mouse). To be noted: compound 1.0 µM; accession and sequence are those of the human protein.
The next assay deals with RPS6KA1 KD1 KD2 (rat). To be noted: compound 1.0 µM; accession and sequence are those of the human protein.
The target in a further assay is LCK (human) (UniProt P06239). The note with it: compound 1.0 µM.
A further assay addresses RET (human) (UniProt P07949). To be noted: compound 1.0 µM.
The test system of a further assay is ROCK2 (rat). The note with it: compound 1.0 µM; accession and sequence are those of the human protein.
In a further assay the target is SGK2 (human) (UniProt Q9HBY8). To be noted: compound 1.0 µM.
The target of a further assay is CSF1R (human) (UniProt P07333). To be noted: compound 1.0 µM.
Assay [1] deals with EGFR (human), P00533 [L861Q]. To be noted: compound 1.0 µM.
A further assay deals with ABL1 (human) (UniProt P00519). To be noted: compound 1.0 µM.
The next assay deals with FGFR4 (human) (UniProt P22455). To be noted: compound 1.0 µM.

CSF1R (human), sequence (P07333 whole entry, looked up): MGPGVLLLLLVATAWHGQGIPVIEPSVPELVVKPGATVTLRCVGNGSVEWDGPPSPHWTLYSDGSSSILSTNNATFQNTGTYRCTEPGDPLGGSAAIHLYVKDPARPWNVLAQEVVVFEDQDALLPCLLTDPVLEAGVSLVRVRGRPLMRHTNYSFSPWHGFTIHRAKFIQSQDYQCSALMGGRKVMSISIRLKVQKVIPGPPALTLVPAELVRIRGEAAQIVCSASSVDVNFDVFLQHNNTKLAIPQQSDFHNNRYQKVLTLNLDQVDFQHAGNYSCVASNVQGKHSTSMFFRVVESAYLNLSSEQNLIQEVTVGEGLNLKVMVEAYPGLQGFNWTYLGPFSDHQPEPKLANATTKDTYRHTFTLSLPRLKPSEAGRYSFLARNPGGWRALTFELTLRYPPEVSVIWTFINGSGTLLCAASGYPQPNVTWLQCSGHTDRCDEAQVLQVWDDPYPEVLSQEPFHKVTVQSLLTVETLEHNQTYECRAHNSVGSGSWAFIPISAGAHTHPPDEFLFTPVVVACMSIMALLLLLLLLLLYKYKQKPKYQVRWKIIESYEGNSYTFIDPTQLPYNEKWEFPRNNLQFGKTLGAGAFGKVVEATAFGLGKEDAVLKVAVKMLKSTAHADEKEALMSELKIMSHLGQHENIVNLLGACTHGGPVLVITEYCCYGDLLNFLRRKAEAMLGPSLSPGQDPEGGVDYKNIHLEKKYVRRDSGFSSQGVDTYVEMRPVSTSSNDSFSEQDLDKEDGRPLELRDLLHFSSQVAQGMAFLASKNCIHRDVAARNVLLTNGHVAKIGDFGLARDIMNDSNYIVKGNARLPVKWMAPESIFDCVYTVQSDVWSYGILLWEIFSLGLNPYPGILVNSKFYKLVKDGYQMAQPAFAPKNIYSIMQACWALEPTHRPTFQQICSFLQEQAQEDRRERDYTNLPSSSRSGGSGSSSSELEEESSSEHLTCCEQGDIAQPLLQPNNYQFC
ABL1 (human), sequence (P00519 whole entry, looked up): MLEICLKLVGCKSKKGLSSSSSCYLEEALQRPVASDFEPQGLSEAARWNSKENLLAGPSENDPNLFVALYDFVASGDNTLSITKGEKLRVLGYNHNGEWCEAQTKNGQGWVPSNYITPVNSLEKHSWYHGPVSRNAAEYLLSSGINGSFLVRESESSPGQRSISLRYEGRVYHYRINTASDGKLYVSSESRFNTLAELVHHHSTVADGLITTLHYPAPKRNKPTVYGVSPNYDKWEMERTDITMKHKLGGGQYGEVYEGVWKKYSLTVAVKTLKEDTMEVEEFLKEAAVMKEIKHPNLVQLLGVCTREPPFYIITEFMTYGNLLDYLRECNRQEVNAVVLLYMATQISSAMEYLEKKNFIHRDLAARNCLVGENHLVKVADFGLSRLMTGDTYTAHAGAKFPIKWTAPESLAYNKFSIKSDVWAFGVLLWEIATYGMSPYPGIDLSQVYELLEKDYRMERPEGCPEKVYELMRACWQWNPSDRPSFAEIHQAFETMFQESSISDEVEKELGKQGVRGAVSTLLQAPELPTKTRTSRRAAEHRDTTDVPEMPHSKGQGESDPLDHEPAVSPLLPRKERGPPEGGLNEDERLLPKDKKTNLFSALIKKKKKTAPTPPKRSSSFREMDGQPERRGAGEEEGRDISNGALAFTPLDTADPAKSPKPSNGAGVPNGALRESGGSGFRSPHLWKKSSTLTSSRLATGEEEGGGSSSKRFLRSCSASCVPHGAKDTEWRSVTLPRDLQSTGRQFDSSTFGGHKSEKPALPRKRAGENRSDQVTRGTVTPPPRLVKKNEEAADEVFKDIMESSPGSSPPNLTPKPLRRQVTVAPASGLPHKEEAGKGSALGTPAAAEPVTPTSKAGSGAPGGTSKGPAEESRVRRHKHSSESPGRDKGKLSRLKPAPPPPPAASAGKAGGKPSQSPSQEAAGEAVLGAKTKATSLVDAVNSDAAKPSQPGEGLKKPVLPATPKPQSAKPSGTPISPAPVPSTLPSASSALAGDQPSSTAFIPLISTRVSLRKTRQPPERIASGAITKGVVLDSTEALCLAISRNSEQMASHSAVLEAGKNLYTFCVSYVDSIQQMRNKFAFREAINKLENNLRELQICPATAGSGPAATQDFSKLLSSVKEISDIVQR
DMPK (human), sequence (Q09013 whole entry, looked up): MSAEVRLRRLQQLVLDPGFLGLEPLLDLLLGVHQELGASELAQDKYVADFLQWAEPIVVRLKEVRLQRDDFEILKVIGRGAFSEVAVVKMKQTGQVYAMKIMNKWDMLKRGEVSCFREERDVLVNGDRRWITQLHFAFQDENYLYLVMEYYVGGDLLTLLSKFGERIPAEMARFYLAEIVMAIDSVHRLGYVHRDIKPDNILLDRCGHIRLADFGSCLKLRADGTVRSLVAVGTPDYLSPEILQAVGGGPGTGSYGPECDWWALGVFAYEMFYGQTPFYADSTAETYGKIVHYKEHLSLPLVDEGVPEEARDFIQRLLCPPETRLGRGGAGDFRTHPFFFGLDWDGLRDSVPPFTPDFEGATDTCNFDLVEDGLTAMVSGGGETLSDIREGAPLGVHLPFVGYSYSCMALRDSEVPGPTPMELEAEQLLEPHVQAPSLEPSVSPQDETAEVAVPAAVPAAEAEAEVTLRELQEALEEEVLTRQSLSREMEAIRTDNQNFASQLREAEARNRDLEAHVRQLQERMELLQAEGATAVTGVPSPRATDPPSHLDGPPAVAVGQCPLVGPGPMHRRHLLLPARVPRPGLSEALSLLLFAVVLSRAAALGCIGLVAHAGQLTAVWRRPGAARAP
CDC42BPB (human), sequence (Q9Y5S2 whole entry, looked up): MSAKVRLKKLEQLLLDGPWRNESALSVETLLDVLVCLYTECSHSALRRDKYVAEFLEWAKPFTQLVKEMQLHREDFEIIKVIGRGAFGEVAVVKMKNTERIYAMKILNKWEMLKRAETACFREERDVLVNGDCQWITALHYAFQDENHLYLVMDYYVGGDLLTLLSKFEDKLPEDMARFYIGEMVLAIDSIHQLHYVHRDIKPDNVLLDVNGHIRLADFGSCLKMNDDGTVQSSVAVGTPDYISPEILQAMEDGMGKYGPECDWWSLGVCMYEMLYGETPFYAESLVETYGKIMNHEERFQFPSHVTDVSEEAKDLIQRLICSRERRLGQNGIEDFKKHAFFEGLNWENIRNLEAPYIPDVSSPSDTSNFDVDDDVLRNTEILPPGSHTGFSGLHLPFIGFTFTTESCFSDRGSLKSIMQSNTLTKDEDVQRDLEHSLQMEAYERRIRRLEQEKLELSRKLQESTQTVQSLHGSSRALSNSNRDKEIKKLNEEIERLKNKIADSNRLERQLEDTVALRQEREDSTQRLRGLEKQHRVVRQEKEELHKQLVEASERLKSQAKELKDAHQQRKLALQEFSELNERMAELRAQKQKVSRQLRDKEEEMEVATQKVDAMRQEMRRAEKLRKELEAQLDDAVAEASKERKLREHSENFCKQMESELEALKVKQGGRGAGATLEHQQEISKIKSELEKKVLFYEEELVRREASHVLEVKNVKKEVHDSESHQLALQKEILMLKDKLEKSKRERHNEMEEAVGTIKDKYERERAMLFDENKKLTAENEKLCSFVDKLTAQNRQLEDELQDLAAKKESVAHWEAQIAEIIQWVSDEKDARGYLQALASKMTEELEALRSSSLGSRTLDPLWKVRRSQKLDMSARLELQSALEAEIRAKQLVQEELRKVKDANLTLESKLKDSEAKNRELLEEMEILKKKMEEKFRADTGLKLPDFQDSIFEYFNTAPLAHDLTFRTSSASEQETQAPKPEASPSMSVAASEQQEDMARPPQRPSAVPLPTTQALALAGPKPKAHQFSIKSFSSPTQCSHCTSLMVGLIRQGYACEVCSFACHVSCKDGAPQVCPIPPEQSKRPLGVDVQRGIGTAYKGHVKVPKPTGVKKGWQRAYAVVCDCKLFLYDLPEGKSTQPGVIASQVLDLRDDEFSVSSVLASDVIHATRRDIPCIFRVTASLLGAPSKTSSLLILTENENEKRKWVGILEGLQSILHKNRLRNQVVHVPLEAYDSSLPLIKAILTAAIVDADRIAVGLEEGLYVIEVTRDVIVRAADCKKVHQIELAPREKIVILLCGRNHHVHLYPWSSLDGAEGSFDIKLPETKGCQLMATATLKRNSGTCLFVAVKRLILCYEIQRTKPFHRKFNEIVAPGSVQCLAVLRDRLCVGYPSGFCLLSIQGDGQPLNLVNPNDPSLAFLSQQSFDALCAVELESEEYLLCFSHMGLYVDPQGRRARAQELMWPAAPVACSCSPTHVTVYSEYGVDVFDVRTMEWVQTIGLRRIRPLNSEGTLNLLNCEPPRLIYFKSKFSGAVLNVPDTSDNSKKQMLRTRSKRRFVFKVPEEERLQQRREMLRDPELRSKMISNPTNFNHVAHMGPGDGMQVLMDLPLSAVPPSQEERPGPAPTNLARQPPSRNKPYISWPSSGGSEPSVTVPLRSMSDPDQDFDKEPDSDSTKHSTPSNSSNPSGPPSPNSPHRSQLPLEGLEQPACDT
LCK (human), sequence (P06239 whole entry, looked up): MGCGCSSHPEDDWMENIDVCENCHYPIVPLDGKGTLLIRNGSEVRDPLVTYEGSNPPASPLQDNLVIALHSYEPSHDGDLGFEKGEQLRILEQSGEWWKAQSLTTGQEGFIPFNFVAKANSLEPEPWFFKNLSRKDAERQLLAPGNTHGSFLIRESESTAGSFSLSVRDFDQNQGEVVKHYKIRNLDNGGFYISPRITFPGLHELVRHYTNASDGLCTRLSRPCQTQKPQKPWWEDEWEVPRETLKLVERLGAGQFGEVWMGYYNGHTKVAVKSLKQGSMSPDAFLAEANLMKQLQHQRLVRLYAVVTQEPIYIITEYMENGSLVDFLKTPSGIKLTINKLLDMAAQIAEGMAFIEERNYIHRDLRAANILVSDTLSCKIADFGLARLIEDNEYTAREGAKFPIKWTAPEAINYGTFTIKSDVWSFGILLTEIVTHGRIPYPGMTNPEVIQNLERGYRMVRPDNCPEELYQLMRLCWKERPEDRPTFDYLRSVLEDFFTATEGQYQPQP

Usually residual activity stands for the signal under treatment as a percentage of the control signal. Regarding `Cc1n[nH]c2c1c(=O)n(CCCN)c1ccc(Cl)cc21`, the residual activity at MET (human) was determined as 117%; in the assay with MAPK1 (mouse), 90%; on RPS6KA2 KD1 KD2 (human) it was 2%; on PRKD2 (human) it was 56%; at CDC42BPB (human) it was 105%; at DMPK (human), 114%. Further, the residual activity in the assay with PRKACA (cow) was 81%; in the assay on BLK (mouse), 92%; with RPS6KA1 KD1 KD2 (rat), 6%; on LCK (human), 82%; on RET (human) it was 37%; in the assay with ROCK2 (rat), 88%. The residual activity was determined as 70% on SGK2 (human); 55% on CSF1R (human); 99% in assay [1]; 113% on ABL1 (human); 99% at FGFR4 (human).
